Measurements taken from patent publication US8853424B2 (Japan Science and Technology Agency, priority 2008, dated 2014).

Tests used:
transglutaminase (TGase) = test: Measurement of TG (TGase inhibitory activity, monodansyl cadaverine / N,N-dimethylcasein fluorescence, FDSS 3000); assay type: biochemical
In short: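 Compound (1 μL of 10 mM stock) added to 0.1 mL reaction: 100 mM HEPES-NaOH pH 7.5, 1 mM CaCl2, 20 μM monodansyl cadaverine, 0.05 mg/mL N,N-dimethylcasein, 5 μg/mL TGase. Rate of fluorescence change at 340 nm measured; DMSO control set to 100; TG50 is the concentration halving activity.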

[1] = tested on: Truncated N-terminal huntington 150 Q-EGFP-Neuron 2a cells; test: Measurement of x-Fold (polyglutamine aggregation inhibitory activity); assay type: cell-based
Method: In the present invention, the polyglutamine aggregation inhibitory activity (x-Fold) can be measured, for example, by the method described in the Example.
The number of the aggregated cells, and the total number of cells were counted by Array Scan V T1 (manufactured by Cellomics, Pittuburg, USA), and the ratio of the aggregated cells to the total number of cells was determined (x-Fold). […]

[2] = TGase activity with compound (10 mM, 1 μL in 0.1 ml enzyme reaction solution), DMSO control taken as 100
[3] = TGase inhibitory activity value, Table 1
[4] = polyglutamine aggregation inhibitory activity, Table 1
[5] = ratio of aggregated cells to total number of cells, compound 20 μM, 20 hr, almost 1 without compound, smaller = stronger inhibition
[6] = TGase inhibitory activity measurement, unit not given
[7] = polyglutamine aggregation, Truncated N-terminal huntington 150 Q-EGFP-Neuron 2a cells

Row | TGase activity remaining (% of DMSO control = 100) (transglutaminase (TGase); [2]) | TGase activity remaining (% of DMSO control = 100) (transglutaminase (TGase); [3]) | TGase activity remaining (% of DMSO control = 100) (transglutaminase (TGase); TGase inhibitory activity value, Table 1, listed as 806) | TGase activity remaining (% of DMSO control = 100) (transglutaminase (TGase); [6]) | TGase activity remaining (% of DMSO control = 100) (transglutaminase (TGase); TGase inhibitory activity value, Table 1, listed as 6012) | Compound | x-Fold [1, 4] | x-Fold [1, 5] | x-Fold ([1]; polyglutamine aggregation inhibitory activity, Table 1, listed as 806) | x-Fold [1, 7] | x-Fold ([1]; polyglutamine aggregation inhibitory activity, Table 1, listed as 6012)
1 | 97 | 97 | – | – | – | Cc1ccc(B(O)c2ccc(-c3ccc(B(O)c4ccc(C)cc4)cc3)cc2)cc1 [Example 363, 4,4′-(4-methylphenylhydroxyboryl)diphenyl] | 0.92 | 0.92 | – | – | –
2 | 103 | 103 | – | – | – | Cc1cc(B(OCCN)c2cccc(COCc3ccccc3B(OCCN)c3ccc(Cl)c(C)c3)c2)ccc1Cl [Example 351] | 1.00 | 1.00 | – | – | –
3 | 89 | – | 89 | – | – | OB(c1ccccc1)c1ccccc1B(O)c1ccccc1 [Example 297, 1,2-di(phenylhydroxyboryl)benzene] | – | 0.69 | 0.69 | – | –
4 | 139 | 139 | – | – | – | OB(c1ccccc1)c1ccc2ccccc2c1-c1c(B(O)c2ccccc2)ccc2ccccc12 [Example 359, 2,2′-di(phenylhydroxyboryl)-1,1′-binaphthyl] | 0.96 | 0.96 | – | – | –
5 | 73 | – | – | 73 | – | Cc1ccc(B(OCCN(C)C)c2ccc(Oc3ccc(B(OCCN(C)C)c4ccc(C)cc4)cc3)cc2)cc1 [Example 446, bis(4,4′-(tolyldimethylaminoethoxyboryl)phenyl)ether] | – | 0.85 | – | 0.85 | –
6 | 51 | 51 | – | – | – | NCCOB(c1ccccc1)c1ccc(-c2ccc(B(OCCN)c3ccccc3)s2)s1 [Example 356, 5,5′-(phenylaminoethoxyboryl)-2,2′-dithiophene] | 1.06 | 1.06 | – | – | –
7 | 126 | – | – | – | – | c1ccc(B(OCCN2CCN(CCOB(c3ccccc3)c3ccccc3)CC2)c2ccccc2)cc1 [Example 239, bis(diphenyl piperazino-O,O-ethoxyborane)] | – | 0.94 | – | – | –
8 | 121 | – | – | 121 | – | CN(C)CCOB(c1ccc(COc2ccc(B(OCCN(C)C)c3ccc(C(F)(F)F)cc3)cc2)cc1)c1ccc(C(F)(F)F)cc1 [Example 401, (4′-trifluoromethylphenyl-N,N-dimethylaminoethoxyboryl)-4-phenyl (4′-trifluoromethylphenyl-N,N-dimethylaminoethoxyborylbenzyl)ether] | – | 0.95 | – | 0.95 | –
9 | 76 | – | – | 76 | – | NCCOB(c1ccsc1)c1ccc2sc3ccc(B(OCCN)c4ccsc4)cc3c2c1 [Example 485, 2,8-di(3-thiophenylaminoethoxyboryl)dibenzothiophene] | – | 0.98 | – | 0.98 | –
10 | 146 | 146 | – | – | – | Cc1ccc(B(OC(=O)C(N)CCCNC(N)=O)c2ccc(C)c(Cl)c2)cc1Cl (stereo not shown) [Example 287, di(3-chloro-4-methylphenyl)(citrullinate-O,N)borane] | 1.00 | 1.00 | – | – | –
11 | 77 | – | – | – | – | Cc1ccc(B(OC(=O)c2ccccn2)c2ccc(C)c(Cl)c2)cc1Cl [Example 281, di(3-chloro-4-methylphenyl)-(picolinate-O,N)borane] | – | 0.94 | – | – | –
12 | 92 | 92 | – | – | – | OB(c1ccccc1)c1ccc(COCCOc2ccc(B(O)c3ccccc3)cc2)cc1 [Example 379, (4-(phenylhydroxyboryl)phenoxyethyl)(4-(phenylhydroxyboryl)benzyl)ether] | 0.74 | 0.74 | – | – | –
13 | 88 | 88 | – | – | – | NCCOB(c1ccccc1)c1ccc2ccccc2c1-c1c(B(OCCN)c2ccccc2)ccc2ccccc12 [Example 360, 2,2′-di(phenylaminoethoxyboryl)-1,1′-binaphthyl] | 1.05 | 1.05 | – | – | –
14 | 87 | 87 | – | – | – | CC(O)C(N)COB(c1ccc(Cl)c(F)c1)c1ccc(Cl)c(F)c1 (stereo not shown) [Example 238, di(4-chloro-3-fluorophenyl) 2-amino-3-hydroxybutyl borinate] | 1.07 | 1.07 | – | – | –
15 | 114 | 114 | – | – | – | OB(c1ccc(COCc2cccc(B(O)c3cc(F)c(F)c(F)c3)c2)cc1)c1cc(F)c(F)c(F)c1 [Example 342, (3-(3′,4′,5′-trifluorophenylhydroxyboryl)benzyl)(4-(3′,4′,5′-trifluorophenylhydroxyboryl)benzyl)ether] | 1.02 | 1.02 | – | – | –
16 | 106 | 106 | – | – | – | diphenyl(tryptophanate-O,N)borane [Example 260] | 0.89 | 0.89 | – | – | –

More lines, now with the values behind:

Row | Compound | TGase activity remaining (% of DMSO control = 100) (transglutaminase (TGase); [2]) | TGase activity remaining (% of DMSO control = 100) (transglutaminase (TGase); [3]) | TGase activity remaining (% of DMSO control = 100) (transglutaminase (TGase); TGase inhibitory activity value, Table 1, listed as 806) | TGase activity remaining (% of DMSO control = 100) (transglutaminase (TGase); [6]) | TGase activity remaining (% of DMSO control = 100) (transglutaminase (TGase); TGase inhibitory activity value, Table 1, listed as 6012) | x-Fold [1, 4] | x-Fold [1, 5] | x-Fold ([1]; polyglutamine aggregation inhibitory activity, Table 1, listed as 806) | x-Fold [1, 7] | x-Fold ([1]; polyglutamine aggregation inhibitory activity, Table 1, listed as 6012)
17 | CC(C)(N)COB(c1ccc(Cl)c(F)c1)c1ccc(Cl)c(F)c1 [Example 236, di(4-chloro-3-fluorophenyl) 2-amino-2-methyl-propyl-borinate] | 87 | 87 | – | – | – | 1.10 | 1.10 | – | – | –
18 | Cc1ccc(B(OC(=O)c2ccccc2N)c2ccc(C)c(Cl)c2)cc1Cl [Example 180, di(3-chloro-4-methylphenyl)(anthranate-O,N)borane] | 35 | 35 | – | – | – | 0.98 | 0.98 | – | – | –
19 | N#Cc1ccc(B(OCCN)c2ccc(C#N)cc2)cc1 [Example 103, aminoethyl bis(4-cyanophenyl)borinate] | 114 | 114 | – | – | – | 0.89 | 0.89 | – | – | –
20 | OB(c1ccc(Cl)c(F)c1)c1ccc(Cl)c(F)c1 [Example 83, bis(3-fluoro-4-chlorophenyl)borinic acid] | 101 | – | – | – | 101 | – | 0.92 | – | – | 0.92
21 | c1ccc(B(OCc2ccccn2)c2cccc3ccccc23)cc1 [Example 202, phenyl naphthyl 2-pyridylmethylborinate] | 91 | 91 | – | – | – | 0.94 | 0.94 | – | – | –
22 | NCCOB(c1cc(F)cc(F)c1)c1cc(F)cc(F)c1 [Example 91, aminoethyl bis(3,5-difluorophenyl)borinate] | 107 | 107 | – | – | – | 0.99 | 0.99 | – | – | –
23 | NC(=O)C1NCCNC1C(=O)OB(c1ccccc1)c1ccccc1 (stereo not shown) [Example 193, diphenyl(2-piperazine-3-carboxyamide-carboxy)borane] | 92 | 92 | – | – | – | 1.03 | 1.03 | – | – | –
24 | CCN(CC)CC.CN(C)c1ccc2c(-c3ccc(NC(=S)NCCCCC(N)C(=O)OB(c4ccccc4)c4ccccc4)cc3C(=O)[O-])c3ccc(=[N+](C)C)cc-3oc2c1 (stereo not shown) [Example 176, diphenyl(tetramethylrhodamine 2,6-diaminocapronate-O,N)borane] | 47 | 47 | – | – | – | 1.06 | 1.06 | – | – | –
25 | Cc1ccc(B(OC(CN)c2ccccc2)c2ccc(C)c(Cl)c2)cc1Cl (stereo not shown) [Example 209, di(3-chloro-4-methylphenyl)1-phenyl 2-aminoethylborinate] | 1 | 1 | – | – | – | 0.98 | 0.98 | – | – | –
26 | Cc1ccc(B(OC(=O)c2ccccn2)c2ccc(C)c(Cl)c2)cc1Cl [Example 221, di(3-chloro-4-methylphenyl)(2-pyridine carboxylate-O,N)borane] | 73 | – | – | – | – | – | 0.94 | – | – | –
27 | OB(c1ccc(F)cc1)c1ccc(COCc2ccc(B(O)c3ccc(F)cc3)cc2)cc1 [Example 142, bis(4-fluorophenylhydroxyboryl 4-benzyl)ether] | 88 | 88 | – | – | – | 0.24 | 0.24 | – | – | –
28 | OB(Cc1ccc(OCc2ccc(B(O)c3ccccc3)cc2)cc1)Cc1ccc(OCc2ccc(B(O)c3ccccc3)cc2)cc1 [Example 187, bis((4,4′-phenylhydroxyboryl)benzyloxybenzyl)hydroxyborane] | 106 | 106 | – | – | – | 0.97 | 0.97 | – | – | –
